Key:
[1] = test system: pressor response to exogenous angiotensin II; assay: Inhibition of pressor response to angiotensin II in conscious rats; assay type: in vivo; details: Rattus norvegicus, i.v., change in mean arterial pressure after intravenous 250 mg/kg angiotensin II, read-out: IC50 (dose of compound needed to produce 50% inhibition of the control response to angiotensin II)
Procedure: (§1) Angiotensin II antagonist activity of the compounds of Formulas (I) and (IA) is assessed by in vitro and in vivo methods. In vitro antagonist activity is determined by the ability of the compounds to compete with ¹²⁵I-angiotensin II for binding to vascular angiotensin II receptors and by their ability to antagonize the contractile response to angiotensin II in the isolated rabbit aorta. In vivo activity is evaluated by the efficacy of the compounds to inhibit the pressor response to exogenous angiotensin II in conscious rats and to lower blood pressure in a rat model of renin dependent hypertension.
Rats are prepared with indwelling femoral arterial and venous catheters and a stomach tube (Gellai et al., Kidney Int. 15:419, 1979). Two to three days following surgery the rats are placed in a restrainer and blood pressure is continuously monitored from the arterial catheter with a pressure transducer and recorded on a polygraph. The change in mean arterial pressure in response to intravenous injections of […] angiotensin II is compared at various time points prior to and following the administration of the compounds intravenously or orally at doses of 3 to 300 mg/kg. The dose of compound needed to produce 50% inhibition of the control response to angiotensin II (IC₅₀) is used to estimate the potency of the compounds. […]

[2] = test system: mean arterial pressure in conscious rats made renin dependent hypertensive; assay: Antihypertensive activity in renal artery ligated (renin dependent hypertensive) conscious rats; assay type: in vivo; details: Rattus norvegicus, iv, seven to eight days following ligation, read-out: IC30 (dose of compound needed to reduce mean arterial pressure by 30 mm Hg)
Procedure: as §1
The antihypertensive activity of the compounds is measured by their ability to reduce mean arterial pressure in conscious rats made renin dependent hypertensive by ligation of the left renal artery (Cangiano et al., J. Pharmacol. Exp. Ther. 208:310, 1979). Renal artery ligated rats are prepared with indwelling catheters as described above. Seven to eight days following renal artery ligation, the time at which plasma renin levels are highest, the conscious rats are placed in restrainers and mean arterial pressure is continuously recorded prior to and following the administration of the compounds intravenously or orally. The dose of compound needed to reduce mean arterial pressure by 30 mm Hg (IC₃₀) is used as an estimate of potency. […]

CCCCc1ncc(/C=C(\Cc2ccccc2)C(=O)O)n1Cc1ccccc1Cl [(E)-3-[2-n-butyl-1-{(2-chlorophenyl)methyl}-1H-imidazol-5-yl]-2-benzyl-2-propenoic acid]
ED50 [1]: 14 mg/kg
ED (30 mm Hg) [2]: 10 mg/kg
